The record followed here is US20260274833A1 (NiKang Therapeutics, Inc., priority 2022, published 2026).

Each structure is given as a SMILES string.

This assay deals with T1, CDK2 (Homo sapiens, UniProt P24941).
T1 construct: endogenous in cells; host or cells: OVCAR3 cells
The assay is described as follows: Phospho-RB measurement in OVCAR3 cells (HTRF phospho-RB cellular kit). The assay is classed as cell-based. The following applies: inhibition of RB phosphorylation at S807/811 (HTRF, TR-FRET ratio 665/620), 24 h compound treatment, 0.3 to 10,000 nM. Put shortly: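 IC50 came from a four-parameter logistic fit of the DMSO-normalized TR-FRET ratio (665/620 nm). That ratio reflects RB phosphorylation at S807/811, read with an HTRF antibody pair 4 h after adding lysate at room temperature.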
(Time-resolved FRET reads energy transfer from a long-lived donor to a nearby acceptor.)
As a reminder, the IC50 is the concentration that gives 50% inhibition. Turning to `CC(C)(C)c1nc(-c2cccc(NS(=O)(=O)N3CCC4(CCC4)C3)c2F)c(-c2ccnc(NC3CC4(C3)CS(=O)(=O)C4)n2)s1` [Example 182, N-(3-(2-(tert-butyl)-5-(2-((2,2-dioxido-2-thiaspiro[3.3]heptan-6-yl)amino)-pyrimidin-4-yl)thiazol-4-yl)-2-fluoro-phenyl)-6-azaspiro[3.4] octane-6-sulfonamide], the IC50 amounted to 1190 nM.

With `CC(C)(C)c1nc(-c2cccc(NS(=O)(=O)N3CCc4ccc(C(C)(C)C#N)cc43)c2F)c(-c2ccnc(NC3CC4(C3)CS(=O)(=O)C4)n2)s1` [Example 260, N-(3-(2-(tert-butyl)-S-(2-((2,2-dioxido-2-thiaspiro[3.3]heptan-6-yl)amino)-pyrimidin-4-yl)thiazol-4-yl)-2-fluoro-phenyl)-6-(2-cyanopropan-2-yl)indoline-1-sulfonamide], the IC50 is 662 nM.

For the compound `Cn1cc2c(n1)CN(S(=O)(=O)Nc1cccc(-c3nc(C(C)(C)C)sc3-c3ccnc(Nc4ccc(N5CCNCC5)cc4)n3)c1F)C2` [Example 252, N-(3-(2-(tert-butyl)-5-(2-((4-(piperazin-1-yl)-phenyl)amino)pyrimidin-4-yl)-thiazol-4-yl)-2-fluorophenyl)-2-methyl-2,6-dihydropyrrolo-[3,4-c]pyrazole-5(4H)-sulfonamide], the IC50 was 3310 nM.

For `CN1CCN(S(=O)(=O)N2CCC(Nc3nccc(-c4sc(C(C)(C)C)nc4-c4cccc(NS(=O)(=O)N5CCc6c(C#N)cccc65)c4F)n3)CC2)CC1` [Example 125, N-(3-(2-(tert-butyl)-5-(2-((1-((4-methyl-piperazin-1-yl)sulfonyl)piperidin-4-yl)amino)-pyrimidin-4-yl)thiazol-4-yl)-2-fluorophenyl)-4-cyanoindoline-1-sulfonamide], the IC50 was determined as 204 nM.

Consider `CS(=O)(=O)C1CCC(Nc2nccc(-c3sc(C45CC(C(F)(F)F)(C4)C5)nc3-c3cccc(NS(=O)(=O)N4Cc5cccc(C(F)F)c5C4)c3F)n2)CC1` (stereo not drawn) [Example 58, 4-(difluoromethyl)-N-(2-fluoro-3-(5-(2-(((1r,4r)-4-(methylsulfonyl)cyclohexyl)-amino)pyrimidin-4-yl)-2-(3-(trifluoromethyl)-bicyclo[1.1.1]pentan-1-yl)thiazol-4-yl)phenyl)-isoindoline-2-sulfonamide], for which the IC50 worked out at 285 nM.

For the compound `CC(C)(C)c1nc(-c2cccc(NS(=O)(=O)N3Cc4cccc(-c5ccccc5)c4C3)c2F)c(-c2ccnc(NC3CCN(S(C)(=O)=O)CC3)n2)s1` [Example 224, N-(3-(2-(tert-butyl)-5-(2-((1-(methylsulfonyl)-piperidin-4-yl)amino)-pyrimidin-4-yl)thiazol-4-yl)-2-fluoro-phenyl)-4-phenylisoindoline-2-sulfonamide], the half-maximal inhibitory concentration (IC50) turned out to be 300 nM.

Consider `CS(=O)(=O)[C@H]1CC[C@H](Nc2nccc(-c3sc(N4C5CCC4CN(CC(F)F)C5)nc3-c3cccc(NS(=O)(=O)N4CCc5ccc(C(F)(F)F)cc54)c3F)n2)CC1` [Example 299, N-(3-(2-(3-(2,2-difluoroethyl)-3,8-diazabicyclo[3.2.1]octan-8-yl)-5-(2-(((1r,4r)-4-(methylsulfonyl)cyclohexyl)-amino)pyrimidin-4-yl)thiazol-4-yl)-2-fluorophenyl)-6-(trifluoromethyl)-indoline-1-sulfonamide], for which the IC50 was found to be 449 nM.

On to `O=S1(=O)CC2(CC(Nc3nccc(-c4sc(C56CC(C5)C6)nc4-c4cccc(NS(=O)(=O)N5CCc6ccc(C(F)F)cc65)c4F)n3)C2)C1` [Example 27, N-(3-(2-(bicyclo [1.1.1]pentan-1-yl)-5-(2-((2,2-dioxido-2-thiaspiro[3.3]heptan-6-yl)amino)-pyrimidin-4-yl)thiazol-4-yl)-2-fluorophenyl)-6-(difluoromethyl)-indoline-1-sulfonamide], for which the concentration for half-maximal inhibition (IC50) came to 161 nM.

In the case of `CS(=O)(=O)[C@H]1CC[C@H](Nc2nccc(-c3sc(C45CC(C(F)(F)F)(C4)C5)nc3-c3cccc(NS(=O)(=O)N4Cc5ccccc5C4)c3F)n2)CC1` [Example 57, N-(2-fluoro-3-(5-(2-(((1r,4r)-4-(methylsulfonyl)cyclohexyl)amino)-pyrimidin-4-yl)-2-(3-(trifluoromethyl)-bicyclo[1.1.1]-pentan-1-yl)thiazol-4-yl)phenyl) isoindoline-2-sulfonamide], the half-inhibitory concentration (IC50) came out at 494 nM.

Take `CC1(c2nc(-c3cccc(NS(=O)(=O)N4Cc5cccc(C(F)(F)F)c5C4)c3F)c(-c3ccnc(N[C@H]4[C@@H]5CS(=O)(=O)C[C@@H]54)n3)s2)CCOCC1` [Example 8, N-(3-(5-(2-(((1R,5S, 6r)-3,3-dioxido-3-thiabicyclo[3.1.0]hexan-6-yl)amino)-pyrimidin-4-yl)-2-(4-methyltetrahydro-2H-pyran-4-yl)thiazol-4-yl)-2-fluorophenyl)-4-(trifluoromethyl)-isoindoline-2-sulfonamide]: the IC50 was found to be 15.2 nM.

Turning to `CN1CC2CCC(C1)N2c1nc(-c2cccc(NS(=O)(=O)N3CCc4ccc(C(F)(F)F)cc43)c2F)c(-c2ccnc(NC3CC4(C3)CS(=O)(=O)C4)n2)s1` [Example 292, N-(3-(5~(2-((2,2-dioxido-2-thiaspiro-[3.3]heptan-6-yl)amino)pyrimidin-4-yl)-2-(3-methyl-3,8-diazabicyclo[3.2.1]-octan-8-yl)thiazol-4-yl)-2-fluorophenyl)-6-(trifluoromethyl) indoline-1-sulfonamide], the 50% inhibitory concentration (IC50) is 29.9 nM.

Turning to `CC(C)(C)c1nc(-c2cccc(NS(=O)(=O)N3CCNc4ccccc4C3)c2F)c(-c2ccnc(NC3CCN(S(C)(=O)=O)CC3)n2)s1` [Example 102, N-(3-(2-(tert-butyl)-5-(2-((1-(methylsulfonyl)piperidin-4-yl)amino)-pyrimidin-4-yl)thiazol-4-yl)-2-fluorophenyl)-1,2,3,5-tetrahydro-4H-benzo[e] [1,4]diazepine-4-sulfonamide], the IC50 worked out at 281 nM.

On to `C#Cc1ccc2c(c1)N(S(=O)(=O)Nc1cccc(-c3nc(C45CC(C4)C5)sc3-c3ccnc(NC4CC5(C4)CS(=O)(=O)C5)n3)c1F)CC2` [Example 26, N-(3-(2-(bicyclo [1.1.1]pentan-1-yl)-5-(2-((2,2-dioxido-2-thiaspiro[3.3]heptan-6-yl)amino)-pyrimidin-4-yl)thiazol-4-yl)-2-fluorophenyl)-6-ethynylindoline-1-sulfonamide], for which the IC50 amounted to 160 nM.

As for `CC(C)(c1nc(-c2cccc(NS(=O)(=O)N3CCc4ccc(C(F)(F)F)cc43)c2F)c(-c2ccnc(N[C@H]3CC[C@H](S(C)(=O)=O)CC3)n2)s1)C(F)(F)F` [Example 290, N-(2-fluoro-3-(5-(2-(((1r,4r)-4-(methylsulfonyl)cyclohexyl)amino)-pyrimidin-4-yl)-2-(1,1,1-trifluoro-2-methylpropan-2-yl)thiazol-4-yl)phenyl)-6-(trifluoromethyl) indoline-1-sulfonamide], the IC50 was found to be 298 nM.

On to `CC(C)(C)c1nc(-c2cccc(NS(=O)(=O)N3CCc4cc(C#N)ccc43)c2F)c(-c2ccnc(NC3CCN(S(C)(=O)=O)CC3)n2)s1` [Example 92, N-(3-(2-(tert-butyl)-5-(2-((1-(methylsulfonyl)piperidin-4-yl)amino)-pyrimidin-4-yl)thiazol-4-yl)-2-fluorophenyl)-5-cyanoindoline-1-sulfonamide], for which the IC50 came to 305 nM.

Turning to `CC(C)(C)c1nc(-c2cccc(NS(=O)(=O)N3Cc4ccccc4C3)c2F)c(-c2ccnc(Nc3ccc(N4CCNCC4)cc3)n2)s1` [Example 79, N-(3-(2-(tert-butyl)-5-(2-((4-(piperazin-1-yl)-phenyl)amino)pyrimidin-4-yl)thiazol-4-yl)-2-fluorophenyl)-isoindoline-2-sulfonamide], the IC50 is 220 nM.

On to `O=S1(=O)CC2(CC(Nc3nccc(-c4sc(C56CC(C5)C6)nc4-c4cccc(NS(=O)(=O)N5CCc6ccc(Cl)cc65)c4F)n3)C2)C1` [Example 21, N-(3-(2-(bicyclo [1.1.1]pentan-1-yl)-5-(2-((2,2-dioxido-2-thiaspiro[3.3]heptan-6-yl)amino)-pyrimidin-4-yl)thiazol-4-yl)-2-fluorophenyl)-6-chloroindoline-1-sulfonamide], for which the IC50 worked out at 55.7 nM.

Take `O=S1(=O)CC2(CC(Nc3nccc(-c4sc(C56CC(C(F)(F)F)(C5)C6)nc4-c4cccc(NS(=O)(=O)N5CCc6ccc(C(F)(F)F)cc65)c4F)n3)C2)C1` [Example 279, N-(3~(5-(2-((2,2-dioxido-2-thiaspiro-[3.3]heptan-6-yl)amino)pyrimidin-4-yl)-2-(3-(trifluoromethyl)bicyclo[1.1.1]-pentan-1-yl)thiazol-4-yl)-2-fluoro-phenyl)-6-(trifluoromethyl) indoline-1-sulfonamide]: the half-inhibitory concentration (IC50) stood at 409 nM.

`CC(C)(C)c1nc(-c2cccc(NS(=O)(=O)N3CCc4cnccc43)c2F)c(-c2ccnc(NC3CCN(S(C)(=O)=O)CC3)n2)s1` [Example 162, N-(3-(2-(tert-butyl)-5-(2-((1-(methylsulfonyl)piperidin-4-yl)amino)-pyrimidin-4-yl)thiazol-4-yl)-2-fluoro-phenyl)-2,3-dihydro-1H-pyrrolo [3,2-c]-pyridine-1-sulfonamide]: the IC50 came to 2120 nM.

`O=S1(=O)CC2(CC(Nc3nccc(-c4sc(C56CC(C5)C6)nc4-c4cccc(NS(=O)(=O)N5CCc6cc(F)c(F)cc65)c4F)n3)C2)C1` [Example 34, N-(3-(2-(bicyclo [1.1.1]pentan-1-yl)-5-(2-((2,2-dioxido-2-thiaspiro[3.3]heptan-6-yl)amino)-pyrimidin-4-yl)thiazol-4-yl)-2-fluorophenyl)-5,6-difluoroindoline-1-sulfonamide]: the IC50 stood at 116 nM.

Turning to `CC(C)(C)c1nc(-c2cccc(NS(=O)(=O)N3Cc4cccc(Oc5cccc(F)c5)c4C3)c2F)c(-c2ccnc(NC3CC4(C3)CS(=O)(=O)C4)n2)s1` [Example 214, N-(3-(2-(tert-butyl)-5-(2-((2,2-dioxido-2-thiaspiro[3.3]heptan-6-yl)amino)-pyrimidin-4-yl)thiazol-4-yl)-2-fluorophenyl)-4-(3-fluorophenoxy)-isoindoline-2-sulfonamide], the IC50 came out at 535 nM.
